Experimental data taken from article PMC4809247 (Journal of medicinal chemistry, 2015).

Legend:
[1] = Intrinsic clearance in rat liver microsomes; format: in vitro ADME; conditions: predicted hepatic clearance based on intrinsic clearance in rat liver microsomes
rat mGlu3 = rat mGlu3 (Rattus norvegicus, UniProt P31422); conditions: calcium mobilization; average of n ≥ 3
rat mGlu5 = rat mGlu5 (Rattus norvegicus, UniProt P31424); assay: Calcium mobilization mGlu5 assay; format: cell-based; conditions: for mGlu5 pEC50 (± SEM): calcium mobilization, average of n ≥ 3 (n = 2 where marked)
Sequence of rat mGlu5 (P31424 21-1203): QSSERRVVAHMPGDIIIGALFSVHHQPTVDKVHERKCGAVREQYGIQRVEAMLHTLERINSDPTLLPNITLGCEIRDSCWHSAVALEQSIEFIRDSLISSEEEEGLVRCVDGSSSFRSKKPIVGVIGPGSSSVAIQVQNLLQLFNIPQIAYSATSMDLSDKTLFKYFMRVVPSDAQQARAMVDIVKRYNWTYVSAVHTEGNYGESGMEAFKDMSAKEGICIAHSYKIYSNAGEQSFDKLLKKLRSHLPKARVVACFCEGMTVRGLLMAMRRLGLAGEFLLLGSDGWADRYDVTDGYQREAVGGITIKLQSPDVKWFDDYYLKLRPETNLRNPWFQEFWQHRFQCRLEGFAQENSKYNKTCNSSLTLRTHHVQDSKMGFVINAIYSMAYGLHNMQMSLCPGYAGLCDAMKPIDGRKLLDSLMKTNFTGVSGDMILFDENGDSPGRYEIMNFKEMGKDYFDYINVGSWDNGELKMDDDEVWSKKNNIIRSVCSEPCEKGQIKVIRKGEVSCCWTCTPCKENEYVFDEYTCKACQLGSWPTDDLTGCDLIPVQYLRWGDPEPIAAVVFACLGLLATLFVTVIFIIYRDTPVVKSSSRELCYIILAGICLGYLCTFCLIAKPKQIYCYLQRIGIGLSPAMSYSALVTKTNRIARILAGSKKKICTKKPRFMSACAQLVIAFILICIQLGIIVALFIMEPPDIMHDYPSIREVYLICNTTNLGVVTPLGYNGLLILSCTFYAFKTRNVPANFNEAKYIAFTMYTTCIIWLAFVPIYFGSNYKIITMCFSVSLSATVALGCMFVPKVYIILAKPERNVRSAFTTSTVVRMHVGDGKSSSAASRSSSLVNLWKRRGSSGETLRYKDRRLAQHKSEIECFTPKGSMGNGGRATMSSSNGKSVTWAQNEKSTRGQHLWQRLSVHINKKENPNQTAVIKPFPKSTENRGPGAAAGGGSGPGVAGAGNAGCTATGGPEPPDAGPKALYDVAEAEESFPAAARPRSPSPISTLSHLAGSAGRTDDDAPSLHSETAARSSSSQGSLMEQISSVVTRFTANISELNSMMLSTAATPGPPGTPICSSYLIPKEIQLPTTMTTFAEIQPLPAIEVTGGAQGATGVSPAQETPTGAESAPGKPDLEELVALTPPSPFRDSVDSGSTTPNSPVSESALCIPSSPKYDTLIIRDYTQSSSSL

Sequence of rat mGlu3 (P31422 23-879): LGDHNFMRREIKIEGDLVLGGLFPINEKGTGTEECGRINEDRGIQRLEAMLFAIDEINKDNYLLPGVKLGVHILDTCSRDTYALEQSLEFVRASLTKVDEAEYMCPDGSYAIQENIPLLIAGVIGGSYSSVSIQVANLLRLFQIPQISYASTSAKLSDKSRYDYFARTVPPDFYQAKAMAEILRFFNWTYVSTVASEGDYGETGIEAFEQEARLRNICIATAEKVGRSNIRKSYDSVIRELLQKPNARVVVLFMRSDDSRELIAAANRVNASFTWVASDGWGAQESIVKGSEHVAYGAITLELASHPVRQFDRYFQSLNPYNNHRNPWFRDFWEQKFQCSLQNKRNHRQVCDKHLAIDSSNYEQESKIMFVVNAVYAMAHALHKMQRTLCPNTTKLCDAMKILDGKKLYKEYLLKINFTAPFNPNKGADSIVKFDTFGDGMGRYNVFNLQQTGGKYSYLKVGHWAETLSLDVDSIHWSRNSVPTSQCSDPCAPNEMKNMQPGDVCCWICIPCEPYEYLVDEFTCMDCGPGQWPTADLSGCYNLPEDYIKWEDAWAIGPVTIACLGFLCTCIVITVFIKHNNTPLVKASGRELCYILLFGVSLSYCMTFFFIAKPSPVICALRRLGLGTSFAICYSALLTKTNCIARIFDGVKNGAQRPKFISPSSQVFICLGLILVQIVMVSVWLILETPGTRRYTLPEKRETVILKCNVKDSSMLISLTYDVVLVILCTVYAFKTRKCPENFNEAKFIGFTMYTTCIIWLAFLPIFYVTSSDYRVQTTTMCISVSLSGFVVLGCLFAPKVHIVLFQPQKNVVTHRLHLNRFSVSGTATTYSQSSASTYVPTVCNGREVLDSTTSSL

SMILES | mGlu3 pIC50 (± SEM) (rat mGlu3) | mGlu5 pEC50 (± SEM) (rat mGlu5) | also measured
C[C@@H]1CN(c2ccccc2Cl)C(=O)c2cc(COc3ccc(F)cn3)nn21 [Compound 57] | 6.85 ± 0.16 |  | rat CLhep [1]: 66.5 mL/min/kg
C[C@@H]1CN(c2ccc(Cl)cc2)C(=O)c2cc(COc3ccc(Cl)cn3)nn21 [Compound 84] | 5.91 ± 0.25 |  | 
C[C@@H]1CN(c2ccc(F)cc2)C(=O)c2cc(COc3ccc(F)cn3)nn21 [Compound 47] | 6.27 ± 0.02 |  | 
C[C@@H]1CN(c2cncc(F)c2)C(=O)c2cc(COc3ccc(Cl)cn3)nn21 [Compound 108] |  | <4.5 | rat CLhep [1]: 26.6 mL/min/kg
C[C@@H]1CN(c2ccc(F)cc2)C(=O)c2cc(COc3ncccc3F)nn21 [Compound 41] | 5.96 ± 0.02 |  | 
C[C@@H]1CN(c2cccc(C#N)c2)C(=O)c2cc(COc3ccc(Cl)cn3)nn21 [Compound 92] | 6.08 ± 0.26 |  | 
COc1ccc(N2C[C@@H](C)n3nc(COc4ccc(F)cn4)cc3C2=O)cc1 [Compound 65] | 6.49 ± 0.10 |  | 
C[C@@H]1CN(c2cccc(F)n2)C(=O)c2cc(COc3ccc(Cl)cn3)nn21 [Compound 105] | 6.53 ± 0.08 |  | 
Cc1ccc(OCc2cc3n(n2)[C@H](C)CN(c2ccc(F)cc2)C3=O)cc1 [Compound 28] | 5.92 ± 0.02 | 5.97 ± 0.04 | 
C[C@@H]1CN(c2ccccn2)C(=O)c2cc(COc3ccc(Cl)cn3)nn21 [Compound 100] | 6.48 ± 0.07 | <4.5 | rat CLhep [1]: 69.5 mL/min/kg
C[C@@H]1CN(c2ccncc2)C(=O)c2cc(COc3ccc(F)cn3)nn21 [Compound 71] | 6.05 ± 0.04 | <4.5 | 
COc1cccc(N2C[C@@H](C)n3nc(COc4ccc(Cl)cn4)cc3C2=O)c1 [Compound 89] | 6.50 ± 0.05 |  | 
Cc1cccc(N2C[C@@H](C)n3nc(COc4ccc(F)cn4)cc3C2=O)c1 [Compound 61] | 6.67 ± 0.15 |  | rat CLhep [1]: 58.4 mL/min/kg
C[C@@H]1CN(c2ccc(C#N)cc2)C(=O)c2cc(COc3ccc(Cl)cn3)nn21 [Compound 93] | 6.27 ± 0.05 |  | 
C[C@@H]1CN(c2ncccc2F)C(=O)c2cc(COc3ccc(Cl)cn3)nn21 [Compound 102] | 6.44 ± 0.03 |  | 
C[C@@H]1CN(c2ccccc2C#N)C(=O)c2cc(COc3ccc(Cl)cn3)nn21 [Compound 91] | 6.37 ± 0.05 |  | 
C[C@@H]1CN(c2ccccc2Cl)C(=O)c2cc(COc3ccc(Cl)cn3)nn21 [Compound 82] | 6.48 ± 0.08 |  | 
Cc1ccnc(OCc2cc3n(n2)[C@H](C)CN(c2ccc(F)cc2)C3=O)c1 [Compound 44] | 5.68 ± 0.01 |  | 
C[C@@H]1CN(c2cc(F)cc(F)c2)C(=O)c2cc(COc3ccc(Cl)cn3)nn21 [Compound 97] | 6.38 ± 0.07 |  | 
C[C@@H]1CN(c2ccc(F)cc2)C(=O)c2cc(COc3ccc(C(F)(F)F)cc3)nn21 [Compound 35] | 5.73 ± 0.01 | <4.5 | 
COc1cccc(OCc2cc3n(n2)[C@H](C)CN(c2ccc(F)cc2)C3=O)c1 [Compound 33] |  | 5.74 ± 0.04 | 

SMILES | mGlu3 pIC50 (± SEM) (rat mGlu3) | mGlu5 pEC50 (± SEM) (rat mGlu5) | also measured
C[C@@H]1CN(c2cccc(F)c2F)C(=O)c2cc(COc3ccc(F)cn3)nn21 [Compound 66] | 6.73 ± 0.16 |  | rat CLhep [1]: 63.6 mL/min/kg
C[C@@H]1CN(c2ccc(F)cn2)C(=O)c2cc(COc3ccc(Cl)cn3)nn21 [Compound 104] | 6.59 ± 0.09 |  | 
C[C@@H]1CN(c2ccccc2F)C(=O)c2cc(COc3ccc(Cl)cn3)nn21 [Compound 80] | 6.65 ± 0.04 |  | 
C[C@@H]1CN(c2ccc(F)cc2)C(=O)c2cc(COc3ccccc3F)nn21 [Compound 22] | 6.28 ± 0.20 | 6.71 ± 0.04 | 
COc1ccnc(OCc2cc3n(n2)[C@H](C)CN(c2ccc(F)cc2)C3=O)c1 [Compound 46] | 5.43 ± 0.00 |  | 
C[C@@H]1CN(c2ccc(F)cn2)C(=O)c2cc(COc3ccc(F)cn3)nn21 [Compound 72] | 6.46 ± 0.07 |  | 
CCOc1ccc(OCc2cc3n(n2)[C@H](C)CN(c2ccc(F)cc2)C3=O)cc1 [Compound 38] | 5.94 ± 0.06 | <4.5 | mGlu5: no activity up to the highest concentration tested (rat mGlu5): > 30 µM
C[C@@H]1CN(c2cccc(F)c2)C(=O)c2cc(COc3ccc(F)cn3)nn21 [Compound 56] | 6.72 ± 0.08 |  | rat CLhep [1]: 53.0 mL/min/kg
C[C@@H]1CN(c2ccc(F)cc2)C(=O)c2cc(COc3cccc(C(F)(F)F)n3)nn21 [Compound 50] | 5.63 ± 0.02 | <4.5 | mGlu5: no activity up to the highest concentration tested (rat mGlu5): > 30 µM
C[C@@H]1CN(c2ccc(F)cc2)C(=O)c2cc(COc3cccc(F)c3)nn21 [Compound 23] | 6.11 ± 0.03 | 7.14 ± 0.02 | 
COc1ccc(OCc2cc3n(n2)[C@H](C)CN(c2ccc(F)cc2)C3=O)cc1 [Compound 34] | 5.98 ± 0.02 | 5.87 ± 0.16 | 
C[C@@H]1CN(c2ncccc2C#N)C(=O)c2cc(COc3ccc(Cl)cn3)nn21 [Compound 103] |  | <4.5 | 
Cc1ccccc1OCc1cc2n(n1)[C@H](C)CN(c1ccc(F)cc1)C2=O [Compound 26] |  | 5.83 ± 0.04 | 
COc1cccc(N2C[C@@H](C)n3nc(COc4ccc(F)cn4)cc3C2=O)c1 [Compound 64] | 6.70 ± 0.06 |  | 
C[C@@H]1CN(c2ccc(F)cc2)C(=O)c2cc(COc3ncccc3C(F)(F)F)nn21 [Compound 42] |  | <4.5 | mGlu5: no activity up to the highest concentration tested (rat mGlu5): > 30 µM
Cc1cccc(N2C[C@@H](C)n3nc(COc4ccc(Cl)cn4)cc3C2=O)c1 [Compound 86] | 6.41 ± 0.05 |  | 
CCc1ccc(OCc2cc3n(n2)[C@H](C)CN(c2ccc(F)cc2)C3=O)cc1 [Compound 36] |  | 5.49 ± 0.03 | 
C[C@@H]1CN(c2ccc(F)cc2)C(=O)c2cc(COc3ccc(C#N)cc3)nn21 [Compound 37] | 6.11 ± 0.12 | 5.71 ± 0.06 | 
C[C@@H]1CN(c2cccc(Cl)c2)C(=O)c2cc(COc3ccc(Cl)cn3)nn21 [Compound 83] | 6.25 ± 0.07 |  | 
COc1cccnc1OCc1cc2n(n1)[C@H](C)CN(c1ccc(F)cc1)C2=O [Compound 43] |  | <4.5 | mGlu5: no activity up to the highest concentration tested (rat mGlu5): > 30 µM
C[C@@H]1CN(c2ccc(F)cc2)C(=O)c2cc(COc3ccc(F)cc3F)nn21 [Compound 25] | 6.38 ± 0.22 | 6.51 ± 0.05 | 

SMILES | mGlu3 pIC50 (± SEM) (rat mGlu3) | mGlu5 pEC50 (± SEM) (rat mGlu5) | also measured
C[C@@H]1CN(c2ccc(F)cc2)C(=O)c2cc(COc3ccccc3Cl)nn21 [Compound 29] | 6.27 ± 0.18 |  | 
C[C@@H]1CN(c2ccc(F)cc2)C(=O)c2cc(COc3cc(C(F)(F)F)ccn3)nn21 [Compound 45] | 5.78 ± 0.01 |  | 
Cc1cccc(OCc2cc3n(n2)[C@H](C)CN(c2ccc(F)cc2)C3=O)n1 [Compound 49] | 5.62 ± 0.02 |  | 
C[C@@H]1CN(c2cccnc2)C(=O)c2cc(COc3ccc(F)cn3)nn21 [Compound 70] | 6.36 ± 0.13 |  | 
C[C@@H]1CN(c2cc(F)ccc2F)C(=O)c2cc(COc3ccc(F)cn3)nn21 [Compound 67] |  |  | rat CLhep [1]: 49.6 mL/min/kg
C[C@@H]1CN(c2c(F)cccc2F)C(=O)c2cc(COc3ccc(F)cn3)nn21 [Compound 68] |  |  | rat CLhep [1]: 64.6 mL/min/kg
C[C@@H]1CN(c2cc(F)ccc2C#N)C(=O)c2cc(COc3ccc(Cl)cn3)nn21 [Compound 98] | 6.28 ± 0.06 | <4.5 | mGlu5: no activity up to the highest concentration tested (rat mGlu5): > 30 µM
C[C@@H]1CN(c2ccccc2F)C(=O)c2cc(COc3ccc(F)cn3)nn21 [Compound 55] |  |  | rat CLhep [1]: 64.7 mL/min/kg
C[C@@H]1CN(c2ccc(Cl)cc2)C(=O)c2cc(COc3ccc(F)cn3)nn21 [Compound 59] | 6.71 ± 0.13 |  | 
C[C@@H]1CN(c2cnccc2F)C(=O)c2cc(COc3ccc(Cl)cn3)nn21 [Compound 107] | 6.32 ± 0.03 | <4.5 | rat CLhep [1]: 36.0 mL/min/kg
C[C@@H]1CN(c2cccc(Cl)c2)C(=O)c2cc(COc3ccc(F)cn3)nn21 [Compound 58] |  |  | rat CLhep [1]: 51.9 mL/min/kg
COc1ccccc1OCc1cc2n(n1)[C@H](C)CN(c1ccc(F)cc1)C2=O [Compound 32] | 5.59 ± 0.18 |  | 
Cc1ccc(N2C[C@@H](C)n3nc(COc4ccc(Cl)cn4)cc3C2=O)cc1 [Compound 87] | 6.39 ± 0.21 |  | 
C[C@@H]1CN(c2cccnc2)C(=O)c2cc(COc3ccc(Cl)cn3)nn21 [Compound 101] | 6.22 ± 0.10 | <4.5 | rat CLhep [1]: 42.0 mL/min/kg
Cc1ccccc1N1C[C@@H](C)n2nc(COc3ccc(Cl)cn3)cc2C1=O [Compound 85] | 6.24 ± 0.18 |  | 
C[C@@H]1CN(c2ccc(F)cc2)C(=O)c2cc(COc3ccc(OC(F)(F)F)cc3)nn21 [Compound 39] | 5.39 ± 0.04 | <4.5 | mGlu5: no activity up to the highest concentration tested (rat mGlu5): > 30 µM
C[C@@H]1CN(c2ccc(F)cc2F)C(=O)c2cc(COc3ccc(Cl)cn3)nn21 [Compound 95] | 6.55 ± 0.08 |  | 
C[C@@H]1CN(c2cncc(C#N)c2)C(=O)c2cc(COc3ccc(Cl)cn3)nn21 [Compound 109] | 6.22 ± 0.01 | <4.5 | rat CLhep [1]: 22.8 mL/min/kg
C[C@@H]1CN(c2cccc(F)c2)C(=O)c2cc(COc3ccc(Cl)cn3)nn21 [Compound 81] | 6.69 ± 0.04 |  | 
C[C@@H]1CN(c2ccc(F)cc2)C(=O)c2cc(COc3ccccc3)nn21 [Compound 18] | 6.57 ± 0.15 | 7.34 ± 0.02 | fold preference for mGlu5 vs mGlu3 activity (rat mGlu5): ~6 fold
